According to ChEMBL document CHEMBL3425412, “Additional sesterterpenes and a nortriterpene saponin from the sponge Clathria gombawuiensis” (2015):
Converted amounts (≈) assume the structure as drawn.

Assays:
Type in all cases: functional
A549 = assay: Cytotoxicity against human A549 cells; conditions: read-out: LC50 (the source's name)
K562 = assay: Cytotoxicity against human K562 cells; conditions: read-out: LC50 (the source's name)
Staphylococcus aureus = assay: Antimicrobial activity against Staphylococcus aureus ATCC 6538p after 24 hrs by twofold dilution method
Proteus hauseri = assay: Antimicrobial activity against Proteus hauseri NBRC 3851 after 24 hrs by twofold dilution method; conditions: NBRC 3851, 24 h
Bacillus subtilis = assay: Antimicrobial activity against Bacillus subtilis ATCC 6633 after 24 hrs by twofold dilution method; conditions: ATCC 6633, 24 h
Kocuria rhizophila = assay: Antimicrobial activity against Kocuria rhizophila NBRC 12708 after 24 hrs by twofold dilution method; conditions: NBRC 12708, 24 h
Salmonella enterica = assay: Antimicrobial activity against Salmonella enterica ATCC 14028 after 24 hrs by twofold dilution method; conditions: ATCC 14028, 24 h

SMILES | CC50 (A549) [µM] | CC50 (K562) [µM] | MIC (Staphylococcus aureus) [µg/mL] | MIC (Proteus hauseri) [µg/mL] | MIC (Bacillus subtilis) [µg/mL] | MIC (Kocuria rhizophila) [µg/mL] | MIC (Salmonella enterica) [µg/mL]
CC1=CC(=O)[C@@H]2[C@@]3(C)CCCC(C)(C)[C@@H]3[C@@H](O)C[C@]2(C)c2c1ccc(C)c2O | 4.7 | 5.4 | > 100 | > 100 |  |  | 
C=C1/C=C\[C@@H]2[C@@]3(C)CCCC(C)(C)[C@@H]3[C@H](O)C[C@@]2(C)O[C@@H]2C=C(C)C(=O)C[C@H]12 | 3.9 | 4.5 | > 100 | > 100 |  |  | 
CC(=O)[C@H]1CC[C@@]2(C)C3=C(CC[C@]12C)[C@@]1(C)CCC(O[C@@H]2O[C@H](C(=O)O)[C@@H](O)[C@H](OS(=O)(=O)[O-])[C@H]2O)C(C)(C)[C@@H]1CC3.[Na+] (some centres undefined) | 2.1 | 1.8 | > 100 | 3.1 | 1.6 | > 100 | > 100
COc1c(C)ccc2c1[C@@]1(C)C[C@H](O)[C@H]3C(C)(C)CCC[C@]3(C)[C@H]1C(=O)C=C2C | > 100 | > 100 |  |  |  |  | 
CC1(C)S[C@@H]2[C@H](NC(=O)[C@H](N)c3ccccc3)C(=O)N2[C@H]1C(=O)O [AMPICILLIN] |  |  | 0.4 (≈ 1.14 µM) | 0.4 (≈ 1.14 µM) | 0.4 (≈ 1.14 µM) | 0.4 (≈ 1.14 µM) | 0.8 (≈ 2.29 µM)
COc1cccc2c1C(=O)c1c(O)c3c(c(O)c1C2=O)C[C@@](O)(C(=O)CO)C[C@@H]3O[C@H]1C[C@H](N)[C@H](O)[C@H](C)O1 [DOXORUBICIN] | 1.1 | 1.5 |  |  |  |  | 
